Source: patent US20210252047A1, “USE OF HALOGEN COMPOUNDS FOR THE TREATMENT AND PREVENTION OF TISSUE INJURY AND POST-INTENSIVE CARE SYNDROME” (Faraday Pharmaceuticals, Inc., priority 2018, published 2021)

What was measured:
[1] = tested on: mice subjected to bilateral hind limb ischemia; assay: Hind limb ischemia survival, Study B (2.5 hours ischemia, NaI in drinking water); type: in vivo, C57Bl/6 mice
Description: (§1) A bilateral hind-limb ischemia model was used to induce systemic inflammation. Male C57Bl/6 mice (7-10 weeks old) were subjected to 2 hours of bilateral hind limb ischemia followed by 3 hours of reperfusion. Ischemia was induced by application of latex o-rings above the greater trochanter using a McGivney Hemorrhoidal ligator. After 3 hours of reperfusion, the plasma was analyzed for levels of creatine kinase (CK), or other markers of organ injury: blood urea nitrogen (BUN), alanine aminotransferase (ALT), and aspartate aminotransferase (AST).
The model used to evaluate survival was similar to that previously described for Study A; however, the time of ischemia was increased to 2.5 hours. The time from reperfusion to death was monitored for the next 24 hours.
The drinking water of the mice was supplemented with 84 μM NaI and the mice were allowed ad libitium access (p.o.) to this water for >5 days prior to hind limb ischemia.

[2] = tested on: mice subject to bilateral hind limb ischemia (HLI); assay: Hind limb ischemia (HLI) cytokine levels in muscle and plasma, Example 3; type: in vivo, C56Bl/6 mice; details: 24 hours after reperfusion
Description: A mouse model of hind limb ischemia was utilized to induce intramuscular and systemic inflammation. Male C56Bl/6 mice˜7-10 weeks old were subject to bilateral hind limb ischemia (HLI) by placing an O-ring on both hind limbs for 2.5 hours. Five minutes prior to reperfusion an intravenous bolus of sodium iodide (NaI; FDY-5301) at a concentration of 1 mg/kg was delivered. Vehicle treated animals received an i.v. bolus of saline. After i.v. delivery, at the 2.5 hour mark, the O-rings were cut off and removed to allow for tissue reperfusion. The mice were sacrificed 24 hours following reperfusion. Upon sacrifice, whole blood was removed (plasma was then separated and frozen at −80° C.), the gastronemius muscle was removed and snap frozen in liquid nitrogen and then stored at −80° C. The cytokines were evaluated on a MAGPIX® instrument (Luminex Corp) using a custom multiplex assay kit from MilliporeSigma (MCYTOMAG-70K-09, containing: INF-γ, IL-18, IL-2, IL-6, IL-10, KC, LIX, MIP-2 & TNF-α.

[3] = tested on: mice subjected to bilateral hind limb ischemia; assay: Hind limb ischemia survival, Study C (3 hours ischemia, i.v. bolus); type: in vivo, C57Bl/6 mice
Description: as §1
The model used to evaluate survival was similar to that previously described for Study A; however, the time of ischemia was increased to 3 hours. The time from reperfusion to death was monitored for the next 2 months.
A 1 mg/kg bolus of sodium iodide was administered intravenously (i.v.) by the retro orbital (r.o.) route 5 minutes prior to reperfusion of the hind limbs.

[4] = tested on: mice subjected to bilateral hind limb ischemia; assay: Bilateral hind-limb ischemia model of systemic inflammation, Study A (2 hours ischemia, 3 hours reperfusion); type: in vivo, C57Bl/6 mice; details: after 3 hours of reperfusion
Description: as §1
A 1, 3, 10, or 20 mg/kg bolus of sodium iodide was administered intravenously (i.v.) by the retro orbital (r.o.) route 5 minutes prior to reperfusion of the hind limbs.

[5] = tested on: mice subjected to hindlimb ischemia reperfusion injury; assay: Hindlimb ischemia reperfusion injury (2 hours ischemia, 3 hours reperfusion), Example 1; type: in vivo, C57BL/6 mice
Description: Anesthetized adult male C57BL/6 mice were subjected to hindlimb ischemia reperfusion injury (bilateral leg tourniquets for 2 hours (ischemia) followed by 3 hours of reperfusion after tourniquet removal). To determine whether exogenous iodide could reduce damage to heart and lung tissue caused by the ischemia reperfusion injury, various doses of iodide (0 mg/kg, 1 mg/kg, 10 mg/kg or 20 mg/kg) were administered intravenously (i.v.) by the retro orbital (r.o.) to the animals 5 minutes prior to reperfusion of the hind limb.
The animals were then sacrificed and blood (plasma) and lung and GC muscle samples obtained. The blood (plasma) samples were assayed to determine the concentrations of creatine kinase and cardiac troponin present in each. In addition, the amount of edema present in the lung and GC muscle was determined as wet weight/dry weight.

[6] = 1 mg/kg i.v. bolus 5 minutes prior to reperfusion, 2.5 h ischemia, p<0.05, FIG. 7
[7] = i.v. administration 5 minutes prior to reperfusion, FIG. 2

[I-].[Na+] [sodium iodide]
animals alive at 24 hours ([1]; 84 μM in drinking water (p.o.) >5 days prior to ischemia, vehicle 50%): 90% | survival compared to vehicle ([1]; 84 μM in drinking water ad libitum (p.o.) >5 days prior to ischemia, monitored 24 hours, FIG. 5): significantly increased | plasma IL-6 ([2]; 1 mg/kg i.v. bolus 5 minutes prior to reperfusion, 2.5 h ischemia, FIG. 8): significant reduction | IL-6 in muscle tissue [2, 6]: significant reduction | IL-10 in muscle tissue [2, 6]: significant reduction | KC in muscle tissue [2, 6]: significant reduction | MIP-2 in muscle tissue [2, 6]: significant reduction | inflammation, heat map of all cytokines assessed in muscle or plasma ([2]; 1 mg/kg i.v. bolus, FIGS. 9 and 10): overall reduction | cytokine levels in plasma ([2]; FIG. 8): significantly reduced | cytokine levels in muscle tissue (IL-6, IL-10, CXCL1 or KC, MIP-2) ([2]; FIGS. 7A-7D): significantly reduced | survival compared to vehicle administration ([3]; 1 mg/kg i.v. bolus 5 minutes prior to reperfusion): increased | animals alive after 72 hours ([3]; 1 mg/kg i.v. bolus 5 minutes prior to reperfusion, vehicle 0%, FIG. 6A): 20% | further survival of the animals alive after 72 hours (study ended at this point) ([3]; 1 mg/kg i.v. bolus, FIG. 6B): ≥ 2 months | plasma CK levels compared to vehicle ([4]; 1 mg/kg i.v. bolus 5 minutes prior to reperfusion, FIG. 3): significantly reduced | plasma level of blood urea nitrogen (BUN) ([4]; 1, 3, 10 or 20 mg/kg i.v. bolus 5 minutes prior to reperfusion, FIG. 4A): reduced | plasma level of alanine aminotransferase (ALT) ([4]; 1, 3, 10 or 20 mg/kg i.v. bolus 5 minutes prior to reperfusion, FIG. 4B): reduced | plasma level of aspartate aminotransferase (AST) ([4]; 1, 3, 10 or 20 mg/kg i.v. bolus 5 minutes prior to reperfusion, FIG. 4C): reduced | plasma CK (creatine kinase) levels compared to vehicle ([5]; 1 mg/kg, 10 mg/kg or 20 mg/kg i.v. (retro orbital) 5 minutes prior to reperfusion, 2 h ischemia, 3 h reperfusion, FIG. 1A): significantly reduced | level of cardiac troponin ([5]; 10 mg/kg i.v. 5 minutes prior to reperfusion, plasma, 2 h ischemia, 3 h reperfusion, FIG. 1B): significantly reduced | muscle edema (gastrocnemius), wet weight/dry weight [5, 7]: reduced | pulmonary edema (lung), wet weight/dry weight [5, 7]: reduced
